Each structure is given as a SMILES string. pEC50: −log10 of the molar value. A value given as a limit tells only on which side of the number the result lay.

One test deals with T1, LXR.
T1 construct: fused on or other part: GST fused to the LBD in the FRET assay
In words: Measured EC50 or IC50 for LXR (LXRα and/or LXRβ; assay and subtype not given). The conditions noted are these: IC50 or EC50 class, subtype not specified. The protocol:
(§1) Measured EC50 or IC50 for LXR, and FXR for Compounds of the Invention
(§2) LXR and FXR activities for various compounds of the invention are presented in the following table; those compounds with EC50 or IC50 values <10 μM for at least one of LXRα, LXRβ or FXR are considered to be active. In the following Table, IC50 or EC50 data is represented as follows: A<1 μM, B=1-10 μm, and C>10 μM.

In the next test the target is T2, FXR (Homo sapiens, UniProt Q96RI1).
T2 sequence (Q96RI1 1-472 isoform Q96RI1-2): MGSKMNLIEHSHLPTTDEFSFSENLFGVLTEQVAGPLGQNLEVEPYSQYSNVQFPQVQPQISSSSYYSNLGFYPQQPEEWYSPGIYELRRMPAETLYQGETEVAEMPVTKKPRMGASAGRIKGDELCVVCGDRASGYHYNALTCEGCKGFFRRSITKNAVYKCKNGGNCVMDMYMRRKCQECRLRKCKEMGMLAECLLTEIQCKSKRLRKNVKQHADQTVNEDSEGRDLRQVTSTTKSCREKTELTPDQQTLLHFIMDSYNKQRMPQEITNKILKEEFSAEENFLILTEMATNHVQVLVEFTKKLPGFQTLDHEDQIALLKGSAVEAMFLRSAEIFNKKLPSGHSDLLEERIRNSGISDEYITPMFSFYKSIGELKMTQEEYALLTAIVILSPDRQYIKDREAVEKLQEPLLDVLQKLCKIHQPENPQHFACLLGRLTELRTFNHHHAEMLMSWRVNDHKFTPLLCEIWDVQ
As to the kind of experiment: Measured EC50 or IC50 for FXR (assay not given). As to conditions: IC50 or EC50 class; assay not specified. The protocol:
as §1, §2

Take `O=C(O)c1ccc(-c2ccc(OCc3cc(C(F)(F)F)nn3-c3c(Cl)cccc3Cl)cc2)cc1` [Example 921, 4′-({[1-(2,6-dichlorophenyl)-3-(trifluoromethyl)-1H-pyrazol-5-yl]methyl}oxy)biphenyl-4-carboxylic acid]: the pEC50 – broadly, −log10 of the EC50, conventionally taken in molar units – in the test on LXR was under 5.00; at FXR, 5.00 to 6.00.

Consider `O=C(O)c1ccc(-c2ccc(OCc3cc(C(F)(F)F)nn3-c3c(Cl)cccc3Cl)cc2)c(Cl)c1` [Example 946, 2-chloro-4′-({[1-(2,6-dichlorophenyl)-3-(trifluoromethyl)-1H-pyrazol-5-yl]methyl}oxy)biphenyl-4-carboxylic acid], for which the figures for the negative-log EC50 (pEC50) in the test with LXR and at FXR were over 6.00 and 5.00 to 6.00, respectively.

Regarding `CC(C)c1cc(COc2ccc(-c3ccc(C(=O)O)cc3Cl)cc2)n(-c2c(Cl)cccc2Cl)n1` [Example 947, 2-chloro-4′-({[1-(2,6-dichlorophenyl)-3-(1-methylethyl)-1H-pyrazol-5-yl]methyl}oxy)biphenyl-4-carboxylic acid], the pEC50 with LXR and at FXR was over 6.00 each time.

On to `CC(C)(O)c1cc(-c2ccc(-c3cccc(S(C)(=O)=O)c3)s2)n(-c2c(F)cccc2F)n1` [Example 948, 2-[1-(2,6-difluorophenyl)-5-{5-[3-(methylsulfonyl)phenyl]-2-thienyl}-1H-pyrazol-3-yl]propan-2-ol], for which the pEC50 is over 6.00 in the test with LXR and 5.00 to 6.00 on FXR.

In the case of `CC(C)(O)c1cc(-c2ccc(-c3cccc(S(C)(=O)=O)c3)s2)n(-c2c(Cl)cccc2Cl)n1` [Example 949, 2-[1-(2,6-dichlorophenyl)-5-{5-[3-(methylsulfonyl)phenyl]-2-thienyl}-1H-pyrazol-3-yl]propan-2-ol], the pEC50 was over 6.00 in the test on LXR and 5.00 to 6.00 at FXR.

On to `CC(C)(O)c1cc(-c2ccc(-c3cccc(S(C)(=O)=O)c3)s2)n(-c2c(F)cccc2Cl)n1` [Example 950, 2-[1-(2-chloro-6-fluorophenyl)-5-{5-[3-(methylsulfonyl)phenyl]-2-thienyl}-1H-pyrazol-3-yl]propan-2-ol], for which the negative-log EC50 (pEC50) in the test with LXR is over 6.00; on FXR, 5.00 to 6.00.

In the case of `CC(C)(O)c1cc(-c2ccc(-c3cccc(S(C)(=O)=O)c3)s2)n(-c2c(F)cccc2C(F)(F)F)n1` [Example 951], the pEC50 with LXR was over 6.00; on FXR it was 5.00 to 6.00.

As for `Cc1cccc(Cl)c1-n1nc(C(C)(C)O)cc1-c1ccc(-c2cccc(S(C)(=O)=O)c2)s1` [Example 952, 2-[1-(2-chloro-6-methylphenyl)-5-{5-[3-(methylsulfonyl)phenyl]-2-thienyl}-1H-pyrazol-3-yl]propan-2-ol], the results for the pEC50 with LXR and at FXR were over 6.00 and 5.00 to 6.00, respectively.

Consider `CC(C)(O)c1nn(-c2c(Cl)cccc2Cl)c(-c2ccc(-c3cccc(S(C)(=O)=O)c3)s2)c1Cl` [Example 953, 2-[4-chloro-1-(2,6-dichlorophenyl)-5-{5-[3-(methylsulfonyl)phenyl]-2-thienyl}-1H-pyrazol-3-yl]propan-2-ol], for which the values for the pEC50 in the test on LXR and at FXR were over 6.00 and 5.00 to 6.00, respectively.

As for `CC(C)(O)c1nn(-c2c(F)cccc2Cl)c(-c2ccc(-c3cccc(S(C)(=O)=O)c3)s2)c1Cl` [Example 954, 2-[4-chloro-1-(2-chloro-6-fluorophenyl)-5-{5-[3-(methylsulfonyl)phenyl]-2-thienyl}-1H-pyrazol-3-yl]propan-2-ol], the pEC50 is over 6.00 in the test on LXR and 5.00 to 6.00 on FXR.

`CC(C)(O)c1cc(-c2ccc(-c3cccc(S(C)(=O)=O)c3)s2)n(-c2c(Cl)cncc2Cl)n1` [Example 955, 2-[1-(3,5-dichloropyridin-4-yl)-5-{5-[3-(methylsulfonyl)phenyl]-2-thienyl}-1H-pyrazol-3-yl]propan-2-ol]: the negative logarithm of the EC50 (pEC50) with LXR is over 6.00; at FXR, 5.00 to 6.00.

Regarding `CC(C)(O)c1cc(-c2ccc(-c3cccc(S(C)(=O)=O)c3)cc2)n(-c2c(Cl)cccc2Cl)n1` [Example 956, 2-{1-(2,6-dichlorophenyl)-5-[3′-(methylsulfonyl)biphenyl-4-yl]-1H-pyrazol-3-yl}propan-2-ol], the pEC50 in the test on LXR is over 6.00; on FXR, 5.00 to 6.00.

For the compound `CC(C)(O)c1nn(-c2c(Cl)cccc2Cl)c(-c2ccc(-c3cccc(S(C)(=O)=O)c3)cc2)c1Cl` [Example 957, 2-{4-chloro-1-(2,6-dichlorophenyl)-5-[3′-(methylsulfonyl)biphenyl-4-yl]-1H-pyrazol-3-yl}propan-2-ol], the pEC50 with LXR and at FXR was over 6.00 throughout.

In the case of `CC(C)(O)c1cc(-c2ccc(-c3cccc(S(C)(=O)=O)c3)cc2Cl)n(-c2c(Cl)cccc2Cl)n1` [Example 958, 2-{5-[3-chloro-3′-(methylsulfonyl)biphenyl-4-yl]-1-(2,6-dichlorophenyl)-1H-pyrazol-3-yl}propan-2-ol], the pEC50 with LXR and at FXR was over 6.00 each time.

As for `CC(C)(O)c1nn(-c2c(Cl)cccc2Cl)c(-c2ccc(-c3cccc(S(C)(=O)=O)c3)cc2Cl)c1Cl` [Example 959, 2-{4-chloro-5-[3-chloro-3′-(methysulfonyl)biphenyl-4-yl]-1-(2,6-dichlorophenyl)-1H-pyrazol-3-yl}propan-2-ol], the pEC50 in the test with LXR and on FXR was over 6.00 throughout.

Consider `Cc1cc(-c2cccc(S(C)(=O)=O)c2)ccc1-c1cc(C(C)(C)O)nn1-c1c(Cl)cccc1Cl` [Example 960, 2-{1-(2,6-dichlorophenyl)-5-[3-methyl-3′-(methylsulfonyl)biphenyl-4-yl]-1H-pyrazol-3-yl}propan-2-ol], for which the negative logarithm of the EC50 (pEC50) with LXR and at FXR was over 6.00 throughout.

On to `Cc1cc(-c2cc(C(C)(C)O)nn2-c2c(Cl)cccc2Cl)ccc1-c1cccc(S(C)(=O)=O)c1` [Example 961, 2-{1-(2,6-dichlorophenyl)-5-[2-methyl-3′-(methylsulfonyl)biphenyl-4-yl]-1H-pyrazol-3-yl}propan-2-ol], for which the negative logarithm of the EC50 (pEC50) is 5.00 to 6.00 in the test with LXR and over 6.00 at FXR.

In the case of `CC(C)(O)c1cc(-c2c(F)cccc2Cl)n(-c2ccc(-c3cccc(S(C)(=O)=O)c3)cc2)n1` [Example 962, 2-{5-(2-chloro-6-fluorophenyl)-1-[3′-(methylsulfonyl)biphenyl-4-yl]-1H-pyrazol-3-yl}propan-2-ol], the pEC50 in the test with LXR was over 6.00; at FXR, 5.00 to 6.00.

For the compound `CC(C)(O)c1cc(-c2c(Cl)cccc2Cl)n(-c2ccc(-c3cccc(S(C)(=O)=O)c3)cc2)n1` [Example 963, 2-{5-(2,6-dichlorophenyl)-1-[3′-(methylsulfonyl)biphenyl-4-yl]-1H-pyrazol-3-yl}propan-2-ol], the pEC50 in the test with LXR was over 6.00; on FXR, 5.00 to 6.00.

With `CC(C)(O)c1nn(-c2ccc(-c3cccc(S(C)(=O)=O)c3)cc2F)c(-c2c(F)cccc2Cl)c1Cl` [Example 964, 2-{4-chloro-5-(2-chloro-6-fluorophenyl)-1-[3-fluoro-3′-(methysulfonyl)biphenyl-4-yl]-1H-pyrazol-3-yl}propan-2-ol], the pEC50 is over 6.00 in the test with LXR and 5.00 to 6.00 on FXR.

For the compound `CC(C)(O)c1cc(-c2c(Cl)cccc2Cl)n(-c2ccc(-c3cccc(S(C)(=O)=O)c3)cc2Cl)n1` [Example 965, 2-{1-[3-chloro-3′-(methylsulfonyl)biphenyl-4-yl]-5-(2,6-dichlorophenyl)-1H-pyrazol-3-yl}propan-2-ol], the pEC50 with LXR was over 6.00; on FXR it was 5.00 to 6.00.

Take `Cc1cc(-c2cccc(S(C)(=O)=O)c2)ccc1-n1nc(C(C)(C)O)cc1-c1c(Cl)cccc1Cl` [Example 966, 2-{5-(2,6-dichlorophenyl)-1-[3-methyl-3′-(methylsulfonyl)biphenyl-4-yl]-1H-pyrazol-3-yl}propan-2-ol]: the negative-log EC50 (pEC50) is over 6.00 in the test with LXR and 5.00 to 6.00 on FXR.

With `Cc1cc(-c2cccc(S(C)(=O)=O)c2)ccc1-n1nc(C(C)(C)O)c(Cl)c1-c1c(Cl)cccc1Cl` [Example 967, 2-{4-chloro-5-(2,6-dichlorophenyl)-1-[3-methyl-3′-(methylsulfonyl)biphenyl-4-yl]-1H-pyrazol-3-yl}propan-2-ol], the values for the negative logarithm of the EC50 (pEC50) in the test with LXR and at FXR were over 6.00 and 5.00 to 6.00, respectively.

For the compound `Cc1cc(-c2cccc(S(C)(=O)=O)c2)ccc1-n1nc(C(C)(C)O)c(Cl)c1-c1c(F)cccc1Cl` [Example 968, 2-{4-chloro-5-(2-chloro-6-fluorophenyl)-1-[3-methyl-3′-(methylsulfonyl)biphenyl-4-yl]-1H-pyrazol-3-yl}propan-2-ol], the results for the pEC50 in the test with LXR and at FXR were over 6.00 and under 5.00, respectively.

For `Cc1cc(-n2nc(C(C)(C)O)cc2-c2c(F)cccc2Cl)ccc1-c1cccc(S(C)(=O)=O)c1` [Example 969, 2-{5-(2-chloro-6-fluorophenyl)-1-[2-methyl-3′-(methylsulfonyl)biphenyl-4-yl]-1H-pyrazol-3-yl}propan-2-ol], the pEC50 in the test on LXR and at FXR was 5.00 to 6.00 throughout.

For `Cc1cc(-n2nc(C(C)(C)O)cc2-c2c(Cl)cccc2Cl)ccc1-c1cccc(S(C)(=O)=O)c1` [Example 970, 2-{5-(2,6-dichlorophenyl)-1-[2-methyl-3′-(methylsulfonyl)biphenyl-4-yl]-1H-pyrazol-3-yl}propan-2-ol], the pEC50 in the test with LXR and at FXR was 5.00 to 6.00 in each case.

For the origin of these results see patent US7998995B2 (Exelixis Patent Company LLC, priority 2006, dated 2011).
